Measured values: patent publication US9771352B2, “Hydroxyalkyl-substituted phenyltriazole derivatives and uses thereof” (BAYER PHARMA AKTIENGESELLSCHAFT, priority 2014, dated 2017)

Key:
[1] = molecular target: T1, human V2 receptor (Homo sapiens, UniProt P30518); experiment: Cellular in vitro assay for determining vasopressin receptor activity, V2 receptor cell line (CRE-luciferase); assay type: cell-based; details: CHO cell line transfected with human V2 receptor; [Arg8]-vasopressin at EC50; compounds of the invention (Table 1A); read-out: IC50 hV2
T1 construct: expressed in transfected cells; host or cells: CHO K1 (ATCC) expressing firefly luciferase under a CRE-responsive promoter
Experimental: (§1) The identification of agonists and antagonists of the V1a and V2 vasopressin receptors from humans, rats and dogs as well as the quantification of the activity of the compounds of the invention is carried out using recombinant cell lines. These cell lines originally derive from a hamster's ovary epithelial cell (Chinese Hamster Ovary, CHO K1, ATCC: American Type Culture Collection, Manassas, Va. 20108, USA). The test cell lines constitutively express the human, rat or dog V1a or V2 receptors. In case of the […] V1a receptors, cells are also stably transfected with a modified form of the calcium-sensitive photoproteins aequorin (human and rat V1a) or obelin (dog V1a), which, after reconstitution with the cofactor coelenterazine, emit light when there are increases in free calcium concentrations [Rizzuto R, Simpson A W, Brini M, Pozzan T, Nature 358, 325-327 (1992); Illarionov B A, Bondar V S, Illarionova V A, Vysotski E S, Gene 153 (2), 273-274 (1995)]. The resulting vasopressin receptor cells react to stimulation of the recombinantly expressed V1a receptors by intracellular release of calcium ions, which can be quantified by the resulting photoprotein luminescence. The Gs-coupled V2 receptors are stably transfected into cell lines expressing the gene for firefly luciferase under control of a CRE-responsible promoter. Activation of V2 receptors induces the activation of the CRE-responsive promoter via cAMP increase, thereby inducing the expression of firefly luciferase. The light emitted by photoproteins of V1a cell lines as well as the light emitted by firefly luciferase of V2 cell lines corresponds to the activation or inhibition of the respective vasopressin receptor. The bioluminescence of the cell lines is detected using a suitable luminometer [Milligan G, Marshall F, Rees S, Trends in Pharmacological Sciences 17, 235-237 (1996)].
On the day before the assay, the cells are plated out in culture medium (DMEM/F12, 2% FCS, 2 mM glutamine, 10 mM HEPES) in 384-well microtiter plates and kept in a cell incubator (96% humidity, 5% v/v CO2, 37° C.). […] Upon addition of the cell lysis reagent Triton and the substrate luciferin, luminescence of firefly luciferase is measured in a luminometer.
(§2) Table 1A below lists individual IC50 values for the compounds of the invention (including diastereomeric mixtures as well as separated, enantiopure diastereomers) that were obtained from cell lines transfected with the human V1a or V2 receptor: […]

[2] = molecular target: T2, human V1a receptor (Homo sapiens, UniProt P37288); experiment: Cellular in vitro assay for determining vasopressin receptor activity, V1a receptor cell line (photoprotein luminescence); assay type: cell-based; details: CHO cell line transfected with human V1a receptor; [Arg8]-vasopressin at EC50; compounds of the invention (Table 1A); read-out: IC50 hV1a
T2 construct: expressed in transfected cells; host or cells: CHO K1 (ATCC), also stably transfected with modified aequorin
Experimental: as §1
On the day before the assay, the cells are plated out in culture medium (DMEM/F12, 2% FCS, 2 mM glutamine, 10 mM HEPES, 5 μg/ml coelenterazine) in 384-well microtiter plates and kept in a cell incubator (96% humidity, 5% v/v CO2, 37° C.). On the day of the assay, test compounds in various concentrations are placed for 10 minutes in the wells of the microtiter plate before the agonist [Arg^8]-vasopressin at EC50 concentration is added. The resulting light signal is measured immediately in the luminometer.
as §2

T1 sequence (P30518 whole entry): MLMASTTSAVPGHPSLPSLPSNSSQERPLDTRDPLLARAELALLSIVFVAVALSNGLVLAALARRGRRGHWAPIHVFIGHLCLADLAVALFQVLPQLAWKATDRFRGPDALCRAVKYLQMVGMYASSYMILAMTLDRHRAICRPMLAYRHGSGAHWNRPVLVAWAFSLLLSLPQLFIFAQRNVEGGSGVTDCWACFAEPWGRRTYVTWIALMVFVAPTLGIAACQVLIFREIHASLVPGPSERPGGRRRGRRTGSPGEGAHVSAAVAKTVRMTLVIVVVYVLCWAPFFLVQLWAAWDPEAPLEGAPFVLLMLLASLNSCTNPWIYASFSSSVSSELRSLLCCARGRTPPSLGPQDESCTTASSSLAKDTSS
T2 sequence (P37288 whole entry): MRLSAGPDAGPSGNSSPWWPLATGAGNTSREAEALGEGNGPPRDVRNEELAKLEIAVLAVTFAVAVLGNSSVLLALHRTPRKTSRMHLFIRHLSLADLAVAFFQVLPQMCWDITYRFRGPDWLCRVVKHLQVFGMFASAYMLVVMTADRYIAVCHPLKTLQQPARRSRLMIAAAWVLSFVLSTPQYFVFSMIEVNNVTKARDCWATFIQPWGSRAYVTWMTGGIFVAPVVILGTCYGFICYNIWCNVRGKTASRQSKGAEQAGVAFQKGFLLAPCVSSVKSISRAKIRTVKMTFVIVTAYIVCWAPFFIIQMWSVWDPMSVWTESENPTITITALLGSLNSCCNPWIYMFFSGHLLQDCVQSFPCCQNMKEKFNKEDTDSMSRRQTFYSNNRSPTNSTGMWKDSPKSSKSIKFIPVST

Row | SMILES | IC50 [1] [nM] | IC50 [2] [nM]
1 | COc1ccccc1-n1nc(Cn2nc(-c3ccc(Cl)cc3)n(C[C@H](O)C(F)(F)F)c2=O)nc1C(C)O (mixture of isomers) [Example 10, 5-(4-Chlorophenyl)-2-({5-[(1RS)-1-hydroxyethyl]-1-(2-methoxyphenyl)-1H-1,2,4-triazol-3-yl}-methyl)-4-[(2S)-3,3,3-trifluoro-2-hydroxypropyl]-2,4-dihydro-3H-1,2,4-triazol-3-one] | 1.4 | 1.4
2 | CC(O)c1nc(Cn2nc(-c3ccc(Cl)cc3)n(C[C@H](O)C(F)(F)F)c2=O)nn1-c1cc(F)cc(Cl)c1 (mixture of isomers) [Example 13, 2-({1-(3-Chloro-5-fluorophenyl)-5-[(1RS)-1-hydroxyethyl]-1H-1,2,4-triazol-3-yl}methyl)-5-(4-chlorophenyl)-4-[(2S)-3,3,3-trifluoro-2-hydroxypropyl]-2,4-dihydro-3H-1,2,4-triazol-3-one] | 1.4 | 6.2
3 | CC(O)c1nc(Cn2nc(-c3ccc(Cl)cc3)n(C[C@H](O)C(F)(F)F)c2=O)nn1-c1cc(F)cc(F)c1 (mixture of isomers) [Example 25, 5-(4-Chlorophenyl)-2-({1-(3,5-difluorophenyl)-5-[(1RS)-1-hydroxyethyl]-1H-1,2,4-triazol-3-yl}-methyl)-4-[(2S)-3,3,3-trifluoro-2-hydroxypropyl]-2,4-dihydro-3H-1,2,4-triazol-3-one] | 3.6 | 7.2
4 | CCc1ccccc1-n1nc(Cn2nc(-c3ccc(Cl)cc3)n(C[C@H](O)C(F)(F)F)c2=O)nc1C(C)O (mixture of isomers) [Example 31, 5-(4-Chlorophenyl)-2-({1-(2-ethylphenyl)-5-[(1RS)-1-hydroxyethyl]-1H-1,2,4-triazol-3-yl}-methyl)-4-[(2S)-3,3,3-trifluoro-2-hydroxypropyl]-2,4-dihydro-3H-1,2,4-triazol-3-one] | 0.9 | 1.6
5 | CC(O)c1nc(Cn2nc(-c3ccc(Cl)cc3)n(C[C@H](O)C(F)(F)F)c2=O)nn1-c1ccc(F)cc1Cl (mixture of isomers) [Example 34, 2-({1-(2-Chloro-4-fluorophenyl)-5-[(1RS)-1-hydroxyethyl]-1H-1,2,4-triazol-3-yl}methyl)-5-(4-chlorophenyl)-4-[(2S)-3,3,3-trifluoro-2-hydroxypropyl]-2,4-dihydro-3H-1,2,4-triazol-3-one] | 1.2 | 0.4
6 | COc1ccc(F)cc1-n1nc(Cn2nc(-c3ccc(Cl)cc3)n(C[C@H](O)C(F)(F)F)c2=O)nc1C(C)O (mixture of isomers) [Example 37, 5-(4-Chlorophenyl)-2-({1-(5-fluoro-2-methoxyphenyl)-5-[(1RS)-1-hydroxyethyl]-1H-1,2,4-triazol-3-yl}methyl)-4-[(2S)-3,3,3-trifluoro-2-hydroxypropyl]-2,4-dihydro-3H-1,2,4-triazol-3-one] | 0.7 | 0.5
7 | CC(O)c1nc(Cn2nc(-c3ccc(Cl)cc3)n(C[C@H](O)C(F)(F)F)c2=O)nn1-c1ccccc1F (mixture of isomers) [Example 40, 5-(4-Chlorophenyl)-2-({1-(2-fluorophenyl)-5-[(1RS)-1-hydroxyethyl]-1H-1,2,4-triazol-3-yl}-methyl)-4-[(2S)-3,3,3-trifluoro-2-hydroxypropyl]-2,4-dihydro-3H-1,2,4-triazol-3-one] | 7.2 | 1.5
8 | CC(O)c1nc(Cn2nc(-c3ccc(Cl)cc3)n(C[C@H](O)C(F)(F)F)c2=O)nn1-c1cc(Cl)cc(Cl)c1 (mixture of isomers) [Example 46, 5-(4-Chlorophenyl)-2-({1-(3,5-dichlorophenyl)-5-[(1RS)-1-hydroxyethyl]-1H-1,2,4-triazol-3-yl}-methyl)-4-[(2S)-3,3,3-trifluoro-2-hydroxypropyl]-2,4-dihydro-3H-1,2,4-triazol-3-one] | 2.1 | 6.3
9 | CC(O)c1nc(Cn2nc(-c3ccc(Cl)cc3)n(C[C@H](O)C(F)(F)F)c2=O)nn1-c1cc(Cl)ccc1Cl (mixture of isomers) [Example 49, 5-(4-Chlorophenyl)-2-({1-(2,5-dichlorophenyl)-5-[(1RS)-1-hydroxyethyl]-1H-1,2,4-triazol-3-yl}-methyl)-4-[(2S)-3,3,3-trifluoro-2-hydroxypropyl]-2,4-dihydro-3H-1,2,4-triazol-3-one] | 12.6 | 1.8
10 | CC(O)c1nc(Cn2nc(-c3ccc(Cl)cc3)n(C[C@H](O)C(F)(F)F)c2=O)nn1-c1cc(F)ccc1Cl (single isomer, unassigned) [Example 59] | 2.4 | –
11 | CC(O)c1nc(Cn2nc(-c3ccc(Cl)cc3)n(C[C@H](O)C(F)(F)F)c2=O)nn1-c1cc(F)ccc1Cl (single isomer, unassigned) [Example 60] | 5.2 | –

Continued, values first:

Row | IC50 [1] [nM] | IC50 [2] [nM] | SMILES
12 | 6 | 3.1 | CC(O)c1nc(Cn2nc(-c3ccc(Cl)cc3)n(C[C@H](O)C(F)(F)F)c2=O)nn1-c1ccccc1 (mixture of isomers) [Example 16, 5-(4-Chlorophenyl)-2-({5-[(1RS)-1-hydroxyethyl]-1-phenyl-1H-1,2,4-triazol-3-yl}methyl)-4-[(2S)-3,3,3-trifluoro-2-hydroxypropyl]-2,4-dihydro-3H-1,2,4-triazol-3-one]
13 | 1.4 | 12.4 | CC(O)c1nc(Cn2nc(-c3ccc(Cl)cc3)n(C[C@H](O)C(F)(F)F)c2=O)nn1-c1cccc(C(F)F)c1 (mixture of isomers) [Example 19, 5-(4-Chlorophenyl)-2-({1-[3-(difluoromethyl)phenyl]-5-[(1RS)-1-hydroxyethyl]-1H-1,2,4-triazol-3-yl}methyl)-4-[(2S)-3,3,3-trifluoro-2-hydroxypropyl]-2,4-dihydro-3H-1,2,4-triazol-3-one]
14 | 2.3 | 24.4 | CC(O)c1nc(Cn2nc(-c3ccc(Cl)cc3)n(C[C@H](O)C(F)(F)F)c2=O)nn1-c1cccc(C(F)(F)F)c1 (mixture of isomers) [Example 22, 5-(4-Chlorophenyl)-2-({5-[(1RS)-1-hydroxyethyl]-1-[3-(trifluoromethyl)phenyl]-1H-1,2,4-triazol-3-yl}methyl)-4-[(2S)-3,3,3-trifluoro-2-hydroxypropyl]-2,4-dihydro-3H-1,2,4-triazol-3-one]
15 | 0.2 | 1.3 | Cc1cccc(-n2nc(Cn3nc(-c4ccc(Cl)cc4)n(C[C@H](O)C(F)(F)F)c3=O)nc2C(C)O)c1 (mixture of isomers) [Example 28, 5-(4-Chlorophenyl)-2-({5-[(1RS)-1-hydroxyethyl]-1-(3-methylphenyl)-1H-1,2,4-triazol-3-yl}-methyl)-4-[(2S)-3,3,3-trifluoro-2-hydroxypropyl]-2,4-dihydro-3H-1,2,4-triazol-3-one]
16 | 1.2 | 6.2 | CC(O)c1nc(Cn2nc(-c3ccc(Cl)cc3)n(C[C@H](O)C(F)(F)F)c2=O)nn1-c1ccc(F)c(Cl)c1 (mixture of isomers) [Example 43, 2-({1-(3-Chloro-4-fluorophenyl)-5-[(1RS)-1-hydroxyethyl]-1H-1,2,4-triazol-3-yl}methyl)-5-(4-chlorophenyl)-4-[(2S)-3,3,3-trifluoro-2-hydroxypropyl]-2,4-dihydro-3H-1,2,4-triazol-3-one]
